Blank lines part the entries; values can stand above or below the compound they belong to.
Legend:
[1] = tested on: sarcoma 180 tumor cells (S-180); test: In vivo antitumor activity assay, sarcoma 180 tumor growth in mice; set-up: species or system Swiss mice; details: 7 consecutive days
Method: Sarcoma 180 (S-180) tumor cells, were obtained through at the Federal University of Ceará, Brazil and maintained in the abdominal cavities of Swiss mice in their ascitic form by ten days.
The effect on tumor growth in vivo was assessed using S-180 ascites tumor cells, according standard protocol. Ten-day-old S-180 ascites tumor cells (2 × 10^6 cells per 0.5 mL) were inoculated subcutaneously into the right axillary region of animals. After 24 h, the animals were separated into 5 groups (n = 10 mice/group) and subjected to intraperitoneal (i.p.) treatment for 7 consecutive days (once a day). Group 1 consisted of animals treated by intraperitoneal (i.p.) administration of negative control—5% Dimethyl sulfoxide (DMSO); Group 2 consisted of animals treated by i.p. administration of positive control—5-fluorouracil 25 mg/kg/day (5-FU; purity > 99%; Sigma Chemical Co., St. Louis, MO, USA); Group 3 consisted of animals treated by i.p. administration of perillaldehyde 8,9-epoxide at 100 mg/kg/day; Group 4 consisted of animals treated by i.p. administration of perillaldehyde 8,9-epoxide at 200 mg/kg/day; Group 5 consisted of animals treated by i.p. administration of perillyl alcohol at 100 mg/kg/day; Group 6 consisted of animals treated by i.p. administration of perillyl alcohol at 200 mg/kg/day. At 24 h from the last day of treatment, under 1.5% isoflurane inhalation anesthesia, the mice were euthanized, and the tumors were weighed. The inhibition ratio of tumor growth (%) was calculated by the following equation: (%) = [(NC − TG)/NC] × 100, where NC is the average tumor weight of the negative control group and TG is the average tumor weight of the treated group.

[2] = Hematological parameters in blood, healthy mice; format: in vivo, Swiss mice; details: 7 days
Method: (§1) Body weights (n = 10 mice/group) were determined at the first and last days of treatment. Organ weight alterations (n = 10 mice/group), and hematological and biochemical analysis (n = 5 mice/group) were performed on the last day of experimentation. All systemic toxicological analyses were also performed with 4 healthy animal groups, without the inoculation of S-180, (n = 5 mice/group) treated with 5% DMSO (i.p.), 5-FU 25 mg/Kg/day (i.p.), perillaldehyde 8,9-epoxide 100 mg/kg/day (i.p.) and perillaldehyde 8,9-epoxide 200 mg/kg/day for consecutive 7 days.
(§2) Twenty four hours after the seventh treatment day, blood samples of the animals were collected (retro-orbital plexus) with anesthetized mice (1.5%, isoflurane). Immediately after blood collection the animals were euthanized, and their organs (liver, spleen and kidneys) were removed and weighed. The wet mass of each organ was expressed as grams per 100 grams of body mass and compared to the negative control group.
(§3) For hematological analyses, an aliquot of blood from each animal was placed in ethylene diamine tetracetic acid (EDTA). Hematological parameters, including the total as well as differential counts of leukocytes, including eosinophils, lymphocytes, neutrophils and monocytes determined by standard manual procedures using optical light microscopy.

[3] = Histopathological and macroscopic analyses of livers, kidneys and spleens; format: in vivo, Swiss mice
Method: After being weighed and fixed in 10% formaldehyde; tumors, livers, spleens, and kidneys were submitted for assessment macroscopic (size, coloration and hemorrhage), were cut into small pieces and, after that dehydrated in alcohol, diaphanized in xylene and paraffin-embedded. Subsequently, 5-µm-thick histological sections were obtained and stained with hematoxylin and eosin. Histological analyses were performed by light microscopy in order to assess possible damage caused by treatment.

[4] = Body and organ weights, healthy mice; format: in vivo, Swiss mice; details: 7 days
Method: as §1, §2

[5] = tested on: three human tumor cell lines (ovarian adenocarcinoma, colon carcinoma, glioblastoma); set-up: method as in PMID 26197313; details: in vitro; cited from earlier work
[6] = Biochemical parameters in blood, mice with S-180 tumor cells; format: in vivo, Swiss mice; details: 7 days; for ALT / AST / Creatinine / Urea: mice with S-180 tumor cells
Method: as §1, §2
(§4) For evaluation of the effect of perillaldehyde 8,9-epoxide on the biochemical parameters aspartate aminotransferase (AST) and alanine aminotransferase (ALT) enzymatic to investigate liver function alterations, creatinine and urea were measured as renal function parameters. For this test, blood samples of the animals were collected without anticoagulant, centrifuged for 10 min at 3500 rpm and 25 °C to obtain […].
(§5) The Clinical Chemistry® kits (Abbott Architect; C8000; Abbott Laboratories, Wiesbaden, Germany) were used for biochemical evaluation of serum samples.

[7] = Body and organ weights, mice transplanted with S-180 tumor cells; format: in vivo, Swiss mice; details: 7 days
Method: as §1, §2

[8] = Hematological parameters in blood, mice with S-180 tumor; format: in vivo, Swiss mice; details: 7 days; for Differential Count of Leukocytes, Eosinophil / Differential Count of Leukocytes, Lymphocyte / Differential Count of Leukocytes, Monocyte / Differential Count of Leukocytes, Neutrophil / Total Leukocytes: mice with S-180 tumor
Method: as §1, §2, §3

[9] = Biochemical parameters in blood, healthy mice; format: in vivo, Swiss mice; details: 7 days
Method: as §1, §2, §4, §5

[10] = tested on: 4 cancer cell lines (colon carcinoma, ovarian adenocarcinoma, glioblastoma, and leukemia); set-up: method as in PMID 26197313; details: all of the 4 cell lines studied; cited from earlier work
[11] = mice with tumor S-180, 100 mg/kg/day i.p.
[12] = mice with tumor S-180, 200 mg/kg/day i.p.
[13] = mice with tumor S-180, 25 mg/kg/day i.p.

Structure (SMILES): C=C(C)[C@@H]1CC=C(CO)CC1 [perillyl alcohol, (S)-(−)-perillyl alcohol]
tumor growth inhibition rate ([1]; 100 mg/kg/day i.p.): 35.3%
tumor growth inhibition rate ([1]; 200 mg/kg/day i.p.): 45.4%

Differential Count of Leukocytes, Eosinophil ([2]; 100 mg/kg/day i.p.): 0%
Differential Count of Leukocytes, Lymphocyte ([2]; 100 mg/kg/day i.p.): 86.0 ± 1.68 %
Differential Count of Leukocytes, Monocyte ([2]; 100 mg/kg/day i.p.): 1.5 ± 0.86%
Differential Count of Leukocytes, Neutrophil ([2]; 100 mg/kg/day i.p.): 12.5 ± 1.08 %
Total Leukocytes ([2]; 100 mg/kg/day i.p.): 3.12 ± 0.38 * 10^3 Cells/µL
Differential Count of Leukocytes, Eosinophil ([2]; 200 mg/kg/day i.p.): 0%
Differential Count of Leukocytes, Lymphocyte ([2]; 200 mg/kg/day i.p.): 89.5 ± 0.65 %
Differential Count of Leukocytes, Monocyte ([2]; 200 mg/kg/day i.p.): 1.3 ± 0.25%
Differential Count of Leukocytes, Neutrophil ([2]; 200 mg/kg/day i.p.): 9.2 ± 0.85 %
Total Leukocytes ([2]; 200 mg/kg/day i.p.): 2.62 ± 0.47 * 10^3 Cells/µL
Kidney ([4]; 100 mg/kg/day i.p.): 1.15 ± 0.06 g/100 g Body Mass
Liver ([4]; 100 mg/kg/day i.p.): 4.66 ± 0.09 g/100 g Body Mass
Spleen ([4]; 100 mg/kg/day i.p.): 0.25 ± 0.01 g/100 g Body Mass
Variation Body in Mass ([4]; 100 mg/kg/day i.p.): 0.90 ± 0.38 g
Kidney ([4]; 200 mg/kg/day i.p.): 1.17 ± 0.19 g/100 g Body Mass
Liver ([4]; 200 mg/kg/day i.p.): 5.07 ± 0.13 g/100 g Body Mass
Spleen ([4]; 200 mg/kg/day i.p.): 0.37 ± 0.06 g/100 g Body Mass
Variation Body in Mass ([4]; 200 mg/kg/day i.p.): -0.71 ± 0.53 g
Creatinine ([6]; 100 mg/kg/day i.p.): 0.34 ± 0.01 mg/dL
Urea ([6]; 100 mg/kg/day i.p.): 43.0 ± 1.08 mg/dL
Creatinine ([6]; 200 mg/kg/day i.p.): 0.33 ± 0.02 mg/dL
Urea ([6]; 200 mg/kg/day i.p.): 47.80 ± 2.01 mg/dL
Kidney [7, 11]: 1.27 ± 0.03 g/100 g Body Mass
Liver [7, 11]: 4.84 ± 0.07 g/100 g Body Mass
Spleen [7, 11]: 0.52 ± 0.02 g/100 g Body Mass
Variation Body in Mass [7, 11]: 1.11 ± 0.19 g
Kidney [7, 12]: 1.28 ± 0.03 g/100 g Body Mass
Liver [7, 12]: 4.57 ± 0.09 g/100 g Body Mass
Spleen [7, 12]: 0.49 ± 0.04 g/100 g Body Mass
Variation Body in Mass [7, 12]: -1.58 ± 0.33 g
effect on total leukocyte count (in words) ([8]; healthy mice and mice with S-180, at the doses tested (100 and 200 mg/kg/day i.p.)): caused leukopenia
Differential Count of Leukocytes, Eosinophil ([8]; 100 mg/kg/day i.p.): 0%
Differential Count of Leukocytes, Lymphocyte ([8]; 100 mg/kg/day i.p.): 73.2 ± 2.17 %
Differential Count of Leukocytes, Monocyte ([8]; 100 mg/kg/day i.p.): 0.6 ± 0.40%
Differential Count of Leukocytes, Neutrophil ([8]; 100 mg/kg/day i.p.): 26.2 ± 5.92 %
Total Leukocytes ([8]; 100 mg/kg/day i.p.): 5.30 ± 0.37 ^# 10^3 Cells/µL
Differential Count of Leukocytes, Eosinophil ([8]; 200 mg/kg/day i.p.): 0%
Differential Count of Leukocytes, Lymphocyte ([8]; 200 mg/kg/day i.p.): 80.6 ± 2.54 %
Differential Count of Leukocytes, Monocyte ([8]; 200 mg/kg/day i.p.): 0.8 ± 0.34%
Differential Count of Leukocytes, Neutrophil ([8]; 200 mg/kg/day i.p.): 18.6 ± 6.18 %
Total Leukocytes ([8]; 200 mg/kg/day i.p.): 6.50 ± 0.65 ^# 10^3 Cells/µL
Creatinine ([9]; 100 mg/kg/day i.p.): 0.34 ± 0.01 mg/dL
Urea ([9]; 100 mg/kg/day i.p.): 54.25 ± 3.82 mg/dL
Creatinine ([9]; 200 mg/kg/day i.p.): 0.34 ± 0.01 mg/dL
Urea ([9]; 200 mg/kg/day i.p.): 41.00 ± 4.42 mg/dL
Structure (SMILES): CC1([C@@H]2CC=C(C=O)CC2)CO1 (stereo partly shown) [perillaldehyde 8,9-epoxide]
Histopathological analyses of the liver, spleen, and kidneys (morphology) ([3]; light microscopy, hematoxylin-eosin, after 7 days i.p. treatment): free from any morphological changes
inhibition percentage (GI%) compared with perillyl alcohol [5]: higher inhibition percentage in all cell lines tested
tumor growth inhibition rate ([1]; 100 mg/kg/day i.p.): 38.4%
tumor growth inhibition rate ([1]; 200 mg/kg/day i.p.): 58.7%
changes in hepatic and renal parameters (AST, ALT, urea, creatinine; in words) ([6]; healthy and S-180 mice, at the doses tested (100 and 200 mg/kg/day i.p.)): does not cause changes in hepatic and renal parameters
ALT ([6]; 100 mg/kg/day i.p.): 35.0 ± 2.2 U/L
AST ([6]; 100 mg/kg/day i.p.): 178.0 ± 5.0 U/L
ALT ([6]; 200 mg/kg/day i.p.): 36.0 ± 3.5 U/L
AST ([6]; 200 mg/kg/day i.p.): 208.3 ± 20.6 U/L
changes in body or organ masses (in words) ([7]; healthy and S-180 mice, 100 and 200 mg/kg/day i.p.): did not cause changes in body or organ masses
ALT ([9]; 100 mg/kg/day i.p.): 55.25 ± 6.26 U/L
AST ([9]; 100 mg/kg/day i.p.): 100.5 ± 5.97 U/L
ALT ([9]; 200 mg/kg/day i.p.): 47.75 ± 4.64 U/L
AST ([9]; 200 mg/kg/day i.p.): 78.75 ± 3.17 U/L
IC50 (median inhibitory concentration able to induce 50% of maximal effect) [10]: less than 4.0 µg/mL

Differential Count of Leukocytes, Eosinophil ([2]; 25 mg/kg/day i.p.): 0%
Differential Count of Leukocytes, Lymphocyte ([2]; 25 mg/kg/day i.p.): 95.8 ± 0.70 %
Differential Count of Leukocytes, Monocyte ([2]; 25 mg/kg/day i.p.): 1.2 ± 0.70%
Differential Count of Leukocytes, Neutrophil ([2]; 25 mg/kg/day i.p.): 3.0 ± 0.70 %
Total Leukocytes ([2]; 25 mg/kg/day i.p.): 2.37 ± 0.77 * 10^3 Cells/µL
macroscopic observation of the spleens ([3]; 25 mg/kg/day i.p., 7 days): Visible atrophy
Kidney ([4]; 25 mg/kg/day i.p.): 1.13 ± 0.03 g/100 g Body Mass
Liver ([4]; 25 mg/kg/day i.p.): 4.65 ± 0.21 g/100 g Body Mass
Spleen ([4]; 25 mg/kg/day i.p.): 0.19 ± 0.02 g/100 g Body Mass
Variation Body in Mass ([4]; 25 mg/kg/day i.p.): -3.50 ± 0.66 g
Creatinine ([6]; 25 mg/kg/day i.p.): 0.28 ± 0.09 mg/dL
Urea ([6]; 25 mg/kg/day i.p.): 50.71 ± 2.18 mg/dL
Kidney [7, 13]: 1.15 ± 0.04 g/100 g Body Mass
Liver [7, 13]: 4.99 ± 0.16 g/100 g Body Mass
Spleen [7, 13]: 0.33 ± 0.02 g/100 g Body Mass
Variation Body in Mass [7, 13]: -4.46 ± 0.83 g
Differential Count of Leukocytes, Eosinophil ([8]; 25 mg/kg/day i.p.): 0%
Differential Count of Leukocytes, Lymphocyte ([8]; 25 mg/kg/day i.p.): 89.0 ± 0.70 %
Differential Count of Leukocytes, Monocyte ([8]; 25 mg/kg/day i.p.): 0.8 ± 0.37%
Differential Count of Leukocytes, Neutrophil ([8]; 25 mg/kg/day i.p.): 10.2 ± 0.54 %
Total Leukocytes ([8]; 25 mg/kg/day i.p.): 2.50 ± 0.32 ^# 10^3 Cells/µL
Creatinine ([9]; 25 mg/kg/day i.p.): 0.37 ± 0.02 mg/dL
Urea ([9]; 25 mg/kg/day i.p.): 49.00 ± 5.86 mg/dL
Structure (SMILES): O=c1[nH]cc(F)c(=O)[nH]1 [5-FU, 5-fluorouracil, reference compound]
tumor growth inhibition rate ([1]; 25 mg/kg/day i.p.): 68.1%
mean tumor mass ([1]; 25 mg/kg/day i.p., 24 h after last treatment, NC 1.18 ± 0.07 g): 0.36 ± 0.02 g
ALT ([6]; 25 mg/kg/day i.p.): 42.8 ± 0.6 U/L
AST ([6]; 25 mg/kg/day i.p.): 164.4 ± 10.0 U/L
ALT ([9]; 25 mg/kg/day i.p.): 47.25 ± 2.8 U/L
AST ([9]; 25 mg/kg/day i.p.): 102.0 ± 15.06 U/L
